# Structures can show the parent of a compound that is named as a salt.
# Legend:
# [1] = tested on: Carrageenan-Induced Rat-Paw Edema; assay: Carrageenan Induced Rat-Paw Edema, dermal application (antiinflammatory); type: in vivo; details: for Measurement of Edema at 3 hr.: 4 hr pretreatment; for Activity applied dermally compared with orally for a given dose: dermal vs oral, Formula B cream (pH=3.5) for Example 74
# Protocol: On the day prior to the test, an area of about 1"×1" of the lower back just above the tail of each of the rats was shaved and depilated with the commercially available hair removal preparation--Nair®. The rats were returned to the vivarium for feed and water.
# The following day each rat was weighed and the volume of the left hind limb recorded. The rats were randomized into groups. Creams were applied in the following manner: 0.2 ml of the cream vehicle (control--no active agent) or formulation containing active ingredient was rubbed thoroughly onto the shaved depilated area of the rat's back for 10-15 seconds. The rats were immediately placed into plexiglass observation cylinders to restrict movement so as to prohibit accidental oral ingestion of the cream. The rats were then placed in a quiet room for 4 hr. Four hours after dosing, 0.1 ml of 1% carrageenan was injected into the left hind limb of each rat. The rats were returned to their observation cylinders and placed in the quiet room for an additional 3 hr time, after which the volume of the left hind limb was determined. The degree of edema was determined by subtracting limb volume at 0 time from the volume determined 3 hr after carrageenan injection. Two tail Dunnett's t-tests were used to compare the edema of the treated groups with the appropriate controls (Dunnet, C. W. (1955); J. AM. STAT. ASSOC. 50: 1096-1121).
# Several compounds of Formula I were mixed with the creams as prepared above so as to obtain cream containing 3.2 weight percent of each compound based on the weight of free acid or the ester. Rats in groups of 6 (randomized) were each treated with 0.2 ml of the cream containing the compound using the foregoing Carrageenan Induced Rat-Paw Edema test. The control rats were treated with cream having no test compound.
# In addition, one preferred compound was tested further using the foregoing Carrageenan-Induced Rat-Paw Edema test at various concentrations in the cream of Formula B (pH=3.5).
# [2] = tested on: Acetylcholine Induced Abdominal Constriction; assay: Acetylcholine Induced Abdominal Constriction Test in Mice, dermal application (analgetic); type: in vivo, mouse; details: Formula A cream pH = 7.0, 4 hr pretreatment
# Protocol: Active agent was incorporated into the cream described under Formual A above (pH=7.0) at various concentrations calculated on a free acid basis.
# Mice were prepared for the test by shaving an area measuring 3/4"×3/4" on their backs behind their heads and then depilating with Nair®, a cosmetic hair remover. The mice were given free access to feed and water prior to the experiment. On the following day the mice were weighed and fitted with a cardboard collar (13/4"×13/4" with a 1/2" hole in the center) around the neck to prevent ingestion of applied compounds. The mice were randomized into groups of 10 using random tables generated by the IBM scrambler. A table of random permutations of blocks of order 3 was used to select the control and treated groups. The randomized mice were fed and placed in individual observation cages 1 hr prior to application of 50 microliters of the cream (by rubbing onto the skin for approximately 10 seconds).
# The mice acting as controls were treated with cream having no test compound in it. Four hours after the application of the cream to the depilated area, acetylcholine bromide was injected intraperitoneally at 6 mg/kg (10 ml/kg in saline) with a plastic syringe with a 5/8 inch, 25-gauge disposable needle. Each mouse was immediately placed under an inverted 1 liter beaker and observed for 3 minutes for the presence of abdominal constriction. If no abdominal constriction was observed during this period, the response was considered blocked. ED50 and 95% confidence limits were determined by computer using a probit analysis method. Ten mice were used at each concentration, including controls.
# The following results in Table 5 were obtained using the foregoing method using the cream of Formula A (pH=7.0) as described above having mixed therein the compound of Example 74 in comparison to controls wherein no test compound was present.
# [3] = quotation from Remington's, 16th Ed., page 1523; cited from earlier work
# [4] = Table 3, Formula A cream, pH = 7.0, 0.2 ml, 3.2% by weight (free acid basis or ester), dermal
# [5] = Table 3, Formula A cream, pH = 7.0, 0.2 ml, 3.2% by weight, dermal, p = <0.05
# [6] = Table 4, first series, Formula B pH 3.5, 0.032 % (W/W), 0.37 mg/kg dermal
# [7] = Table 4, second series, Formula B pH 3.5, 0.01 % (W/W), 0.10 mg/kg dermal
# [8] = Table 4, second series, Formula B pH 3.5, 0.032 % (W/W), 0.32 mg/kg dermal
# [9] = Table 4, second series, Formula B pH 3.5, 0.10 % (W/W), 0.94 mg/kg dermal
smiles,measurement,setting,value
"CCOC(=O)Cc1cccc(C(=O)c2ccccc2)c1N [Example 5, 2-Amino-3-benzoylbenzeneacetic acid, ethyl ester]",Measurement of Edema at 3 hr.,[1]; [4],0.27 ± 0.18 ml ± S.D.
same,% Change (edema vs control),[1]; [5],-71%
"CSc1ccc(C(=O)c2cc(F)cc(CC(=O)O)c2N)cc1 [Example 19, 2-Amino-3-[(4-methylthio)benzoyl]-5-fluorobenzeneacetic acid, sodium salt]",Measurement of Edema at 3 hr.,[1]; [4],0.55 ± 0.14 ml ± S.D.
same,% Change (edema vs control),[1]; [5],-41%
"Cc1ccc(C(=O)c2cc(Cl)cc(CC(=O)O)c2N)cc1 [Example 55, 2-Amino-3-(4-methylbenzoyl)-5-chlorobenzeneacetic acid, sodium salt, hydrate [4:3]]",Measurement of Edema at 3 hr.,[1]; [4],0.33 ± 0.20 ml ± S.D.
same,% Change (edema vs control),[1]; [5],-64%
"Nc1c(CC(=O)O)cccc1C(=O)c1ccc(I)cc1 [Example 57, 2-Amino-3-(4-iodobenzoyl)benzeneacetic acid, sodium salt, hydrate [4:1]]",Measurement of Edema at 3 hr.,[1]; [4],0.40 ± 0.14 ml ± S.D.
same,% Change (edema vs control),[1]; [5],-57%
"CCOC(=O)Cc1cccc(C(=O)c2ccc(Br)cc2)c1N [Example 69, 2-Amino-3-(4-bromobenzoyl)benzeneacetic acid, ethyl ester]",Measurement of Edema at 3 hr.,[1]; [4],0.50 ± 0.20 ml ± S.D.
same,% Change (edema vs control),[1]; [5],-46%
"Nc1c(CC(=O)O)cccc1C(=O)c1ccc(Br)cc1 [Example 74, 2-Amino-3-(4-bromobenzoyl)benzeneacetic acid, sodium salt, sesquihydrate]",% Block,[2]; 0.01 wt. % in 50 μl cream,0%
same,% Block,[2]; 0.032 wt. % in 50 μl cream,20%
same,% Block,[2]; 0.10 wt. % in 50 μl cream,60%
same,% Block,[2]; 0.32 wt. % in 50 μl cream,80%
same,% Block,[2]; 1.0 wt. % in 50 μl cream,80%
same,% Block,[2]; 3.16 wt. % in 50 μl cream,90%
same,ED50 as % Concentration of Agent in Cream (95% Confidence Limits),"[2]; probit analysis, 95% confidence limits (0.06-0.29)",0.128%
same,Measurement of Edema at 3 hr.,"[1]; Table 3, Formula B cream, pH = 3.5, 0.2 ml, 3.2% by weight (free acid basis), dermal",0.48 ± 0.17 ml ± S.D.
same,Measurement of Edema at 3 hr.,"[1]; Table 3, Formula B cream, pH = 3.5, 0.2 ml, 3.2% by weight (free acid basis), dermal, sodium salt, sesquihydrate",0.38 ± 0.18 ml ± S.D.
same,3 Hr. Edema,[1]; [6],0.73 ± 0.33 ml ± S.D.
same,% Change (edema vs control),[1]; [6],-26%
same,% Change (edema vs control),"[1]; Table 4, first series, Formula B pH 3.5, 0.10 % (W/W), 1.1 mg/kg dermal",-57%
same,3 Hr. Edema,"[1]; Table 4, first series, Formula B pH 3.5, 0.10 % (W/W), 1.1 mg/kg dermal, p < 0.05",0.42 ± 0.21 ml ± S.D.
same,% Change (edema vs control),"[1]; Table 4, first series, Formula B pH 3.5, 0.32 % (W/W), 3.7 mg/kg dermal",-62%
same,3 Hr. Edema,"[1]; Table 4, first series, Formula B pH 3.5, 0.32 % (W/W), 3.7 mg/kg dermal, p < 0.05",0.37 ± 0.19 ml ± S.D.
same,% Change (edema vs control),"[1]; Table 4, first series, Formula B pH 3.5, 1.0 % (W/W), 11.9 mg/kg dermal",-57%
same,3 Hr. Edema,"[1]; Table 4, first series, Formula B pH 3.5, 1.0 % (W/W), 11.9 mg/kg dermal, p < 0.05",0.42 ± 0.10 ml ± S.D.
same,% Change (edema vs control),"[1]; Table 4, first series, Formula B pH 3.5, 3.16 % (W/W), 36.5 mg/kg dermal",-61%
same,3 Hr. Edema,"[1]; Table 4, first series, Formula B pH 3.5, 3.16 % (W/W), 36.5 mg/kg dermal, p < 0.05",0.38 ± 0.18 ml ± S.D.
same,3 Hr. Edema,[1]; [7],0.88 ± 0.33 ml ± S.D.
same,% Change (edema vs control),[1]; [7],+3%
same,3 Hr. Edema,[1]; [8],1.05 ± 0.22 ml ± S.D.
same,% Change (edema vs control),[1]; [8],+22%
same,3 Hr. Edema,[1]; [9],0.55 ± 0.20 ml ± S.D.
same,% Change (edema vs control),[1]; [9],-36%
same,% Change (edema vs control),"[1]; Table 4, second series, Formula B pH 3.5, 0.32 % (W/W), 3.0 mg/kg dermal",-52%
same,3 Hr. Edema,"[1]; Table 4, second series, Formula B pH 3.5, 0.32 % (W/W), 3.0 mg/kg dermal, p < 0.05",0.42 ± 0.15 ml ± S.D.
same,% Change (edema vs control),"[1]; Table 4, second series, Formula B pH 3.5, 1.0 % (W/W), 10.3 mg/kg dermal",-57%
same,3 Hr. Edema,"[1]; Table 4, second series, Formula B pH 3.5, 1.0 % (W/W), 10.3 mg/kg dermal, p < 0.05",0.37 ± 0.05 ml ± S.D.
same,% Change (edema vs control),"[1]; Table 4, second series, Formula B pH 3.5, 3.16 % (W/W), 31.5 mg/kg dermal",-44%
same,3 Hr. Edema,"[1]; Table 4, second series, Formula B pH 3.5, 3.16 % (W/W), 31.5 mg/kg dermal, p < 0.05",0.48 ± 0.17 ml ± S.D.
same,Activity against edema compared with indomethacin applied dermally or orally,"[1]; comparative study, Example 74 applied dermally to rats",more active against the Edema than indomethacin applied dermally or orally
same,Activity applied dermally compared with orally for a given dose,[1]; comparative study,about as active applied dermally as it was orally for a given dose
"COc1ccc2c(c1)c(CC(=O)O)c(C)n2C(=O)c1ccc(Cl)cc1 [indomethacin, reference compound]",Activity applied dermally compared with orally for a given dose,[1]; comparative study,markedly less active when applied dermally than when given orally for a given dose
O=C([O-])c1ccccc1O.[Na+] [sodium salicylate],Skin permeation compared with salicylic acid,[3],permeates poorly compared with salicylic acid

# From patent publication US4683242A, “Transdermal treatment for pain and inflammation with 2-amino-3-aroylbenzeneacetic acids, salts and esters” (A. H. Robins Company, Incorporated, priority 1985, dated 1987)
